This is an account of results in EP1263429B1, “ANTIVIRAL THERAPY” (Universiteit Utrecht, priority 2000, dated 2001).

In one test the test system is HXB2. Description: IC50 of APHS for HIV-1 strains (Table 2), sensitive strain. It is filed as cell-based. The conditions noted are these: Human immunodeficiency virus 1, HXB2, read-out: IC50 of APHS.
For the next test, the system named is HIV-1Ba-L. Description: HIV-1 replication in acutely infected PBMC, p24-core antigen ELISA. It is filed as cell-based. The conditions noted are these: for inhibition at 30 µM: 30 µM APHS. As for the experimental part:
Peripheral blood mononuclear cell (PBMC) fractions are isolated from heparinised blood from HIV-1-, HIV-2- and hepatitis B- seronegative donors (Blood-bank, Utrecht, the Netherlands) by Ficoll-Isopaque gradient separation. Cells are washed twice, stimulated with 4 µg/ml phytohemagglutinin (PHA), and cultured in RPMI-1640 medium supplemented with 5 mM Hepes, 19 mM sodium bicarbonate, 10 µg/ml gentamicin, and 10% heat-inactivated fetal calf serum at a concentration of 1 x 10^6 cells/ml.
HIV-1 strain Ba-L is grown to high titer in MDM. The 50% tissue culture infectious dose (TCID50) of the virus stock is determined by endpoint dilution with serial fourfold dilutions in a 96-well microtiter plate on MDM. HIV-1 strain AT is grown to high titer in PHA-stimulated PBMC. The TCID50 of the virus stock is determined by endpoint dilution with serial fourfold dilutions in a 96-well microtiter plate on PBMC.
MDM, and PBMC, were incubated with HIV at a multiplicity of infection of 0.02, and 0.006 or 0.001, respectively. After two hours cells are washed to remove unbound virus and cultured for 4 to 7 days in different concentrations of the drug under investigation. On day 4, 5 and 7, 0.01 ml of supernatant is removed from the culture and virus in culture supernatant is inactivated in a final concentration of 0.05% empigen (Calbiochem-Novabiochem Co., La Jolla, CA). The presence of HIV-1 in the inactivated supernatant is monitored by checking for the p24-core antigen using the enzyme-linked immunosorbent assay (ELISA) system of John Moore.
(A, B) Peripheral blood mononuclear cells (PBMC) were isolated from heparinized blood from HIV-1-, HIV-2-, and hepatitis B-seronegative donors and obtained on Ficoll-Hypaque density gradients. Cells were washed twice, stimulated with 5 µg/ml phytohemagglutinin (PHA), and cultured m RPMI-1640 medium supplemented with 5 mM Hepes, 19 mM sodium bicarbonate, 10 µg/mL gentamicin, and 10% heat-inactivated fetal calf serum (PBMC culture medium) at a concentration of 2 x 10^6 cells/ml. After 3 days of incubation stimulated PBMC were recovered from the flasks and infected for 2 hours with HIV-1Ba-L at a multiplicity of infection of 0.01. Afterwards, HIV-infected and mock-infected PBMC were washed twice to remove unbound virus. (A) PBMC were cultured at a density of 6 x 10^5 cells/well with different concentrations of APHS and after 5 days of incubation samples of culture supernatant were collected. (B) PBMC were cultured in suspension at a concentration of 2 x 10^6 cells/ml in Teflon flasks in PBMC culture medium. After 5 days of incubation PBMC were recovered from Teflon flasks, washed twice to remove unbound virus and cultured at a density of 6 x 10^5 PBMC / well with different concentrations of APHS. After 2 days of incubation samples of culture supernatant were collected. p24-core antigen production was quantified using the enzyme-linked immunosorbent assay (ELISA) system of John Moore. […] (C, D) PBMC were isolated from heparinized blood from HIV-1-, HIV-2-, and hepatitis B-seronegative donors and obtained on Ficoll-Hypaque density gradients. PBMC were washed twice and monocytes were purified by countercurrent centrifugal elutriation. Cells were >98% monocytes by criteria of cell morphology on May-Grünwald-Giemsa-stained cytosmears and by nonspecific esterase staining using alpha-naphtylacetate as substrate. […]
(In general: ELISA stands for enzyme-linked immunosorbent assay.)

The structures appear in SMILES notation. Like-named read-outs stand apart in the source and are kept apart here.

On to `CCCCC#CCSc1ccccc1OC(C)=O` [APHS, o-(acetoxy-phenyl)hept-2-ynyl sulphide], for which the IC50 with HXB2 amounted to 12.6 ± 2.3 µM. Moreover, in the test with HIV-1Ba-L (Fig 4, PBMC infected with HIV-1AT or HIV-1BaL, 4 and 5 days of incubation), the “APHS concentrations that inhibit HIV-1 production” value is “above 1 µM”. Further, in the test on HIV-1Ba-L (Fig 6A, acute infection of PBMC, multiplicity of infection 0.01, 5 days of incubation), the “APHS concentrations that inhibit HIV-1Ba-L replication” value is listed as “above 3 µM”. For the same compound, the inhibition at 30 µM with HIV-1Ba-L (Human immunodeficiency virus 1, 120 h, Fig 6A, acute infection of PBMC, multiplicity of infection 0.01, 5 days) turned out to be 100%; with HIV-1Ba-L (Human immunodeficiency virus 1, Fig 4, PBMC, read-out: inhibition of HIV-1BaL replication), 100%. Besides, the inhibition at 1 µM with HIV-1Ba-L (Human immunodeficiency virus 1, PBMC, read-out: inhibition of HIV-1BaL production) amounted to 50%.

A word on the IC50: it is the point on the concentration scale where inhibition reaches its midpoint. As usually defined, the inhibition is the share of the control response that was lost under treatment.
